In ChEMBL document CHEMBL1145900, “Histone deacetylase inhibitors” (J Med Chem, 2003):
pIC50: −log10 of the molar value. Converted amounts (≈) assume the structure as drawn. One block for each compound: values may come before it.

Assays:
[1] = target: T1, Histone deacetylase (Homo sapiens) (UniProt Q13547+O15379+Q9UBN7+Q92769+Q9UQL6+Q8WUI4+Q9BY41+Q96DB2+P56524+Q9UKV0+Q969S8); assay: Inhibitory concentration against human Histone deacetylase; type: protein assay; details: concentration not given here
Histone deacetylase HD2 = target: T2, Histone deacetylase HD2 (Zea mays, UniProt Q94F81); assay: Inhibitory concentration against maize Histone deacetylase 2
T2 sequence (Q94F81 whole entry): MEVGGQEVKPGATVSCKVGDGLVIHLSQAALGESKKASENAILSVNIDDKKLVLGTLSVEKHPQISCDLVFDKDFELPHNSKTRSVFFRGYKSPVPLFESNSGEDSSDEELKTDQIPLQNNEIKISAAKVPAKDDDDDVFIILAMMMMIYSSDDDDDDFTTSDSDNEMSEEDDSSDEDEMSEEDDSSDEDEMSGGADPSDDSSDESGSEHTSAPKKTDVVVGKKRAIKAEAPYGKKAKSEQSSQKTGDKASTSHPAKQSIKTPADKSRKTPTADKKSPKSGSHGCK

Histone deacetylase 1 [2] = target: Histone deacetylase 1 (Homo sapiens, UniProt Q13547, C151S); assay: Inhibitory concentration against human Histone deacetylase 1 (C151S)
Sequence of Histone deacetylase 1 (Homo sapiens, UniProt Q13547, C151S) (Q13547 whole entry C151S): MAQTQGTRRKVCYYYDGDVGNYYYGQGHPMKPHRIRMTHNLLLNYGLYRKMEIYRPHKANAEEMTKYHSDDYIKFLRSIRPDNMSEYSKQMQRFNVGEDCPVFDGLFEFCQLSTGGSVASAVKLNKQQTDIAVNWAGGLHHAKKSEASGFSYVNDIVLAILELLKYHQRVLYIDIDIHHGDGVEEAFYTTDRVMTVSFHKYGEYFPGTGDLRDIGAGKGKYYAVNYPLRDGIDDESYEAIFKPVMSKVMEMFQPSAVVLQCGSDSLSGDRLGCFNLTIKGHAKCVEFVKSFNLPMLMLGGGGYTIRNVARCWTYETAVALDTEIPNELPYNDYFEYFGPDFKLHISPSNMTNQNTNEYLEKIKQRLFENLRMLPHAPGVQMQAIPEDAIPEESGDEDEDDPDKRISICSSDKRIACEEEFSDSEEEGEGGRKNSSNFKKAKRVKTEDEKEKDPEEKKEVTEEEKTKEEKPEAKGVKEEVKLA

Histone deacetylase 2 = Histone deacetylase 2 (Homo sapiens, UniProt Q92769); assay: Inhibitory concentration against human Histone deacetylase 2
Sequence of Histone deacetylase 2 (Q92769 whole entry): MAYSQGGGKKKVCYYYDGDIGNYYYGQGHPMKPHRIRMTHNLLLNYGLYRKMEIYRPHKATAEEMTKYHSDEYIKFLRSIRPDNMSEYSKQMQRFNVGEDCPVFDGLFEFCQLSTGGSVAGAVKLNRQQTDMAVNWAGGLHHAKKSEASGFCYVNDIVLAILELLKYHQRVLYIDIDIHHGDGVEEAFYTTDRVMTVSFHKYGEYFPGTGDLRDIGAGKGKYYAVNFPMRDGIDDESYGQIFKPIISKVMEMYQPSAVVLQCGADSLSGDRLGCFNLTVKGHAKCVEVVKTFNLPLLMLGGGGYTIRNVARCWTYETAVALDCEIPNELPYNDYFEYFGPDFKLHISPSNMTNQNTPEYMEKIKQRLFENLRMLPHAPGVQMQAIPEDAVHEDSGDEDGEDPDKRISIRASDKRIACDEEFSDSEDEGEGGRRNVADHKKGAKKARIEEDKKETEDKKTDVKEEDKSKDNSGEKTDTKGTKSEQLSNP

[3] = target: T3, Protein deacetylase HDAC6 (Homo sapiens, UniProt Q9UBN7); assay: Inhibitory concentration against human Histone deacetylase 6
T3 sequence (Q9UBN7 whole entry): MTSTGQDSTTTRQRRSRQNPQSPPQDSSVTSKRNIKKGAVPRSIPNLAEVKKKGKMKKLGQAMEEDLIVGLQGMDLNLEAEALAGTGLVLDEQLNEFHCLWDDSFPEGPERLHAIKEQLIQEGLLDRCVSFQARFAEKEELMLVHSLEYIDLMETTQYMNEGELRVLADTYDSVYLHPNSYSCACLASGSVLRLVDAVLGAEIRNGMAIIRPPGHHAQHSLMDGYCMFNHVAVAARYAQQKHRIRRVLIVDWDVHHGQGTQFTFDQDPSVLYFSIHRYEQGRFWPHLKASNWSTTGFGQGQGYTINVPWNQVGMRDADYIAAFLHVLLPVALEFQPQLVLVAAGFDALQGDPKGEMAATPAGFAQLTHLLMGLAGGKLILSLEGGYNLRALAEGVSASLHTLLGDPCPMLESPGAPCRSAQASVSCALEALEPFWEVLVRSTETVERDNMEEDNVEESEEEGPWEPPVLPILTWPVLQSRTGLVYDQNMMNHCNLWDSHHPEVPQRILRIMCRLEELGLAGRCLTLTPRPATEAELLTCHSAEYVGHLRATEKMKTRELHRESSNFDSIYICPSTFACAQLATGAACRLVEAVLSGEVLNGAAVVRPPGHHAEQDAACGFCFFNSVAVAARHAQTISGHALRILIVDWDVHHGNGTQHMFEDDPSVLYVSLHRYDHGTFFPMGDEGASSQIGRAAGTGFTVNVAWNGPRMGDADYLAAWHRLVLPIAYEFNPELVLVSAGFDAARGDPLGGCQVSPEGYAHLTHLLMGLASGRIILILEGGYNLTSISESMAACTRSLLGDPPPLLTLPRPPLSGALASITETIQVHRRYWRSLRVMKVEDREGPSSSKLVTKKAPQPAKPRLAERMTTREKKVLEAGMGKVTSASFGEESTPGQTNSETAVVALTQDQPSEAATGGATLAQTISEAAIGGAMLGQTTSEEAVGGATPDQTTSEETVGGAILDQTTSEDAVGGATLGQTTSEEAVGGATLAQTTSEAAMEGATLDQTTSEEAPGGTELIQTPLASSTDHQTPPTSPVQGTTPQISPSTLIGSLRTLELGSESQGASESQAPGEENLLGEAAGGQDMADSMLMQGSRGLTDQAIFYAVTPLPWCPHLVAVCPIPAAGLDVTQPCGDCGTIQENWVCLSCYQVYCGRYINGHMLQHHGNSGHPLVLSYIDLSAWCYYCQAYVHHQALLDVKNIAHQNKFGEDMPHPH

Histone deacetylase 4 = Histone deacetylase 4 (Homo sapiens, UniProt P56524)
Sequence of Histone deacetylase 4 (P56524 whole entry): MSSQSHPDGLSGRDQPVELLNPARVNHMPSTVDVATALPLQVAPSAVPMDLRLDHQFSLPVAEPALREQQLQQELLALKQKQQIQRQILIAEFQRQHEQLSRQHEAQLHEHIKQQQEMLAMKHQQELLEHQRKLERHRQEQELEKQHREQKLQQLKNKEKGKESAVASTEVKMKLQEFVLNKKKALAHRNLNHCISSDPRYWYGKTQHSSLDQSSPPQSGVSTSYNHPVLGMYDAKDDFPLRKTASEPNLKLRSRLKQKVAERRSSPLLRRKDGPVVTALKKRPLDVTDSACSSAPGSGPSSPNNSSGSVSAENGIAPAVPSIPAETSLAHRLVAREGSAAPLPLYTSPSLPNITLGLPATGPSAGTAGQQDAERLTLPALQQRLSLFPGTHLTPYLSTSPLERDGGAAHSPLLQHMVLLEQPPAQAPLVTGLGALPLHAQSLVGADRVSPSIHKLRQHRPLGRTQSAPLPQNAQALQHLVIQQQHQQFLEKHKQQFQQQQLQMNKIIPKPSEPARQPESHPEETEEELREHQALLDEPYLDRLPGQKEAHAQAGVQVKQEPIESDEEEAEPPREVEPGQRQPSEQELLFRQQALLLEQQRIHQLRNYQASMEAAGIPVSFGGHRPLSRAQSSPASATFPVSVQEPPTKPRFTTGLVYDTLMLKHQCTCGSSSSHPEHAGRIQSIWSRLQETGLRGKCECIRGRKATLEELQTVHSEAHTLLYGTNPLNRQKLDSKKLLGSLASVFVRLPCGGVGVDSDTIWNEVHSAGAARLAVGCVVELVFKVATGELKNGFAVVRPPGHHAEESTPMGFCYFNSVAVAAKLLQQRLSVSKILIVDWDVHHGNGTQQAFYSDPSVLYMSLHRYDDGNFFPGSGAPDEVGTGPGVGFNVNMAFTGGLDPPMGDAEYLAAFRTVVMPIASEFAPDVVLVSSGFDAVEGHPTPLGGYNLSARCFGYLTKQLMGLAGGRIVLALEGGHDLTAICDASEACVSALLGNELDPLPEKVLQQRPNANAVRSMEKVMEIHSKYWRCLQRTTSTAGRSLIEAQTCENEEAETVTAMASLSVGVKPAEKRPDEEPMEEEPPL
Description: Inhibitory concentration against human Histone deacetylase 4

Histone deacetylase 1 [4] = target: Histone deacetylase 1 (Homo sapiens, UniProt Q13547); assay: Inhibitory concentration against human Histone deacetylase 1
Sequence of Histone deacetylase 1 (Homo sapiens, UniProt Q13547) (Q13547 whole entry): as the sequence (Q13547 whole entry C151S) above, with S151C counted along it

[5] = target: T1, Histone deacetylase (Homo sapiens); assay: Percent inhibition against isolated Histone deacetylase enzyme at 30 uM; type: protein assay
HT-29 = assay: In vitro inhibitory concentration against HT-29 tumor cell proliferation; type: functional, cell-based; details: Homo sapiens
Jurkat = assay: In vitro inhibitory concentration against human Jurkat cell proliferation; type: functional, cell-based
HCT-116 = assay: Inhibitory concentration against HCT116 cells proliferation; type: functional, cell-based; details: Homo sapiens
Histone deacetylase = type: protein assay, Homo sapiens
Description: Inhibitory concentration against histone deacetylase

[6] = Inhibitory concentration against mixed human Histone deacetylase 1, Histone deacetylase 2 and Histone deacetylase 3

pIC50 (Histone deacetylase HD2): < 4.40
SMILES: CN(C)c1ccc(C(=O)Nc2ccc(CC(=O)NO)cc2)cc1

inhibition [5]: 0%
SMILES: Cn1cc(C(=O)Cc2ccccc2)cc1/C=C/C#N

IC50 (HT-29): 0.158 µg/mL (≈ 0.268 µM)
IC50 (Jurkat): 0.152 µg/mL (≈ 0.258 µM)
SMILES: CCC(=O)CCCCC[C@@H]1NC(=O)[C@H]2CCCCN2C(=O)[C@H](Cc2ccccc2)NC(=O)[C@H](Cc2ccccc2)NC1=O

pIC50 [6]: 8.05
SMILES: N#Cc1ccc(-c2ccc(OCCCCCCC(=O)NO)cc2)cc1

More lines, now with the values behind:

SMILES: O=C(CCCCCCCOc1ccc(-c2ccccc2)cc1)C(F)(F)F
inhibition [1]: 72%

SMILES: C/C=C1\NC(=O)[C@H]2CSSCC/C=C/[C@H](CC(=O)N[C@H](C(C)C)C(=O)N2)OC(=O)[C@H](C(C)C)NC1=O [ROMIDEPSIN]
pIC50 (Histone deacetylase 1 [2]): 6.55

SMILES: C/C=C1\NC(=O)[C@@H](CS)NC(=O)[C@@H](C(C)C)NC(=O)C[C@@H](/C=C/CCS)OC(=O)[C@H](C(C)C)NC1=O [FR-135313]
pIC50 (Histone deacetylase 2): 8.41
pIC50 [3]: 6.10
pIC50 (Histone deacetylase 4): 7.60

SMILES: C/C=C1\NC(=O)[C@@H](CSC)NC(=O)[C@@H](C(C)C)CC(=O)C[C@@H](/C=C/CCSC)OC(=O)[C@H](C(C)C)NC1=O
pIC50 (Histone deacetylase 2): 5.48
pIC50 [3]: < 4.00
pIC50 (Histone deacetylase 1 [4]): 5.20
pIC50 (Histone deacetylase 4): 3.96
pIC50 (Histone deacetylase 1 [2]): < 4.00

SMILES: O=C(/C=C/c1ccc(CNCCCc2ccccc2)cc1)NO
pIC50 (HCT-116): 7.19
IC50 (Histone deacetylase): 64 nM
